Measured values as given in the supplement of paper PMC12406974.

Legend:
Test in all cases: maximum observed lethal fraction; higher = more cell death
U2OS PTBP1-KO = system: U2OS PTBP1-KO
U2OS BAX/BAK1 DKO = system: U2OS BAX/BAK1 DKO
U2OS BCL2L12-KO = system: U2OS BCL2L12-KO
U2OS = system: U2OS
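Also: FLICK assay: SYTOX Green fluorescence of dead cells tracked over time after drugging in 96-well plates, with total cell counts taken from Triton X-100 lysed wells.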

CNCc1ccc(-c2[nH]c3cc(F)cc4c3c2CCNC4=O)cc1 [Rucaparib]
maximum observed lethal fraction
Conditions	0.1 µM	0.316 µM	1 µM	3.16 µM	10 µM	31.6 µM	100 µM
U2OS	0.0508	0.0538	0.0545	0.057	0.0608	0.278	0.81
U2OS BAX/BAK1 DKO	0.0512	0.0548	0.0528	0.06	0.0652	0.0926	0.178
U2OS BCL2L12-KO	0.065	0.0637	0.0652	0.0687	0.0753	0.195	0.886
U2OS PTBP1-KO	0.0657	0.065	0.0647	0.0685	0.0766	0.18	0.683

Cc1cc(Nc2ccc(NC(=O)c3ccc(Nc4ccnc5ccccc45)cc3)cc2)nc(N)n1 [SGI-1027]
maximum observed lethal fraction
Conditions	0.0316 µM	0.1 µM	0.316 µM	1 µM	3.16 µM	10 µM	31.6 µM
U2OS	0.0565	0.0566	0.0644	0.414	0.997	1	0.875
U2OS BAX/BAK1 DKO	0.0581	0.0592	0.0626	0.104	0.964	1	0.883
U2OS BCL2L12-KO	0.0572	0.0566	0.0604	0.902	1	0.984	0.888
U2OS PTBP1-KO	0.0577	0.0687	0.0612	0.208	0.977	1	0.886

CN[C@@H]1C[C@H]2O[C@@](C)([C@@H]1OC)n1c3ccccc3c3c4c(c5c6ccccc6n2c5c31)C(=O)NC4 [Staurosporine]
maximum observed lethal fraction
Conditions	0.01 µM	0.0316 µM	0.1 µM	0.316 µM	1 µM	3.16 µM	10 µM
U2OS	0.508	0.709	0.903	0.819	0.71	0.642	0.811
U2OS BAX/BAK1 DKO	0.104	0.113	0.125	0.121	0.125	0.136	0.254
U2OS BCL2L12-KO	0.437	0.593	0.936	0.877	0.736	0.725	0.894
U2OS PTBP1-KO	0.476	0.77	0.93	0.878	0.737	0.781	0.864

CN(C)C/C=C/C(=O)Nc1ccc(C(=O)Nc2cccc(Nc3ncc(Cl)c(-c4c[nH]c5ccccc45)n3)c2)cc1 [THZ1]
maximum observed lethal fraction
Conditions	0.01 µM	0.0316 µM	0.1 µM	0.316 µM	1 µM	3.16 µM	10 µM
U2OS	0.0758	0.274	0.452	0.441	0.57	0.678	0.76
U2OS BAX/BAK1 DKO	0.0742	0.0981	0.0902	0.1	0.109	0.157	0.12
U2OS BCL2L12-KO	0.0888	0.274	0.475	0.467	0.582	0.742	0.761
U2OS PTBP1-KO	0.101	0.239	0.388	0.33	0.486	0.627	0.707

CN(C)C/C=C/C(=O)Nc1ccc(C(=O)N2CCC[C@@H](Nc3ncc(Cl)c(-c4c[nH]c5ccccc45)n3)C2)cc1 [THZ531]
maximum observed lethal fraction
Conditions	0.01 µM	0.0316 µM	0.1 µM	0.316 µM	1 µM	3.16 µM	10 µM
U2OS	0.049	0.0521	0.0575	0.271	0.325	0.46	0.923
U2OS BAX/BAK1 DKO	0.061	0.0622	0.0635	0.0888	0.105	0.0957	0.188
U2OS BCL2L12-KO	0.0636	0.0649	0.0776	0.465	0.359	0.489	0.903
U2OS PTBP1-KO	0.0612	0.0612	0.0684	0.17	0.346	0.314	0.836

COc1cc([C@@H]2c3cc4c(cc3[C@@H](O[C@@H]3O[C@@H]5CO[C@@H](c6cccs6)O[C@H]5[C@H](O)[C@H]3O)[C@H]3COC(=O)[C@H]23)OCO4)cc(OC)c1O [Teniposide]
maximum observed lethal fraction
Conditions	0.0316 µM	0.1 µM	0.316 µM	1 µM	3.16 µM	10 µM	31.6 µM
U2OS	0.0732	0.0749	0.0834	0.373	0.714	0.804	0.867
U2OS BAX/BAK1 DKO	0.0788	0.0806	0.0807	0.0902	0.106	0.205	0.299
U2OS BCL2L12-KO	0.0736	0.0745	0.0806	0.355	0.728	0.801	0.968
U2OS PTBP1-KO	0.079	0.0821	0.0892	0.383	0.686	0.763	0.815

C/C=C(/C)C(=O)O[C@H]1C(C)=C2[C@H]([C@@H]1OC(=O)CCCCCCC)[C@@](C)(OC(C)=O)C[C@H](OC(=O)CCC)[C@@]1(O)[C@H]2OC(=O)[C@@]1(C)O [Thapsigargin]
maximum observed lethal fraction
Conditions	0.0316 µM	0.1 µM	0.316 µM	1 µM	3.16 µM	10 µM	31.6 µM
U2OS	0.405	0.476	0.473	0.602	0.585	0.763	0.862
U2OS BAX/BAK1 DKO	0.0914	0.192	0.171	0.266	0.163	0.811	0.884
U2OS BCL2L12-KO	0.631	0.675	0.688	0.71	0.721	0.779	0.892
U2OS PTBP1-KO	0.228	0.265	0.324	0.296	0.48	0.831	0.892

CC[C@@]1(O)C(=O)OCc2c1cc1n(c2=O)Cc2cc3c(CN(C)C)c(O)ccc3nc2-1 [Topotecan]
maximum observed lethal fraction
Conditions	0.0316 µM	0.1 µM	0.316 µM	1 µM	3.16 µM	10 µM	31.6 µM
U2OS	0.0699	0.0706	0.0756	0.0868	0.233	0.5	0.683
U2OS BAX/BAK1 DKO	0.0741	0.0822	0.0765	0.0845	0.0931	0.0974	0.177
U2OS BCL2L12-KO	0.0781	0.0819	0.0871	0.0968	0.208	0.495	0.798
U2OS PTBP1-KO	0.0741	0.0838	0.0808	0.0858	0.106	0.197	0.329

Nc1ccc(-c2ccc3ncc4ccc(=O)n(-c5cccc(C(F)(F)F)c5)c4c3c2)cn1 [Torin2]
maximum observed lethal fraction
Conditions	0.0316 µM	0.1 µM	0.316 µM	1 µM	3.16 µM	10 µM	31.6 µM
U2OS	0.0812	0.0904	0.197	0.299	0.435	0.589	0.396
U2OS BAX/BAK1 DKO	0.0705	0.0756	0.0765	0.0833	0.0776	0.0881	0.272
U2OS BCL2L12-KO	0.104	0.181	0.249	0.362	0.467	0.629	0.443
U2OS PTBP1-KO	0.0906	0.107	0.196	0.276	0.363	0.436	0.421

CC(C)[C@]12O[C@H]1[C@@H]1O[C@]13[C@]1(O[C@H]1C[C@H]1C4=C(CC[C@@]13C)C(=O)OC4)[C@@H]2O [Triptolide]
maximum observed lethal fraction
Conditions	0.001 µM	0.00316 µM	0.01 µM	0.0316 µM	0.1 µM	0.316 µM	1 µM
U2OS	0.0606	0.0621	0.161	0.621	0.521	0.616	0.638
U2OS BAX/BAK1 DKO	0.0639	0.067	0.0751	0.0882	0.0915	0.0939	0.0919
U2OS BCL2L12-KO	0.0575	0.0652	0.073	0.378	0.23	0.282	0.309
U2OS PTBP1-KO	0.0668	0.0699	0.085	0.24	0.206	0.223	0.286

CC(=O)N[C@H]1[C@@H](O[C@@H]2O[C@H](CC(O)[C@H]3O[C@@H](n4ccc(=O)[nH]c4=O)[C@H](O)[C@@H]3O)[C@H](O)[C@H](O)[C@H]2NC(=O)/C=C/CC(C)C)O[C@H](CO)[C@@H](N)[C@@H]1O (some centres undefined) [Tunicamycin]
maximum observed lethal fraction
Conditions	0.01 µM	0.0316 µM	0.1 µM	0.316 µM	1 µM	3.16 µM	10 µM
U2OS	0.0548	0.0561	0.0662	0.0886	0.347	0.692	0.82
U2OS BAX/BAK1 DKO	0.0556	0.0546	0.0609	0.0665	0.0788	0.089	0.0844
U2OS BCL2L12-KO	0.0673	0.0693	0.0857	0.196	0.58	0.86	0.873
U2OS PTBP1-KO	0.0696	0.0731	0.0724	0.0808	0.104	0.345	0.533

O=C(CCCCCCC(=O)Nc1ccccc1)NO [Vorinostat]
maximum observed lethal fraction
Conditions	0.1 µM	0.316 µM	1 µM	3.16 µM	10 µM	31.6 µM	100 µM
U2OS	0.0571	0.0602	0.0901	0.458	0.659	0.778	0.811
U2OS BAX/BAK1 DKO	0.0548	0.0545	0.0635	0.0731	0.0736	0.081	0.084
U2OS BCL2L12-KO	0.0673	0.0704	0.185	0.586	0.804	0.824	0.899
U2OS PTBP1-KO	0.0673	0.0682	0.0906	0.316	0.481	0.558	0.513

C=CC(=O)Nc1ccc(C(=O)Nc2[nH]nc3c2CN(C(=O)N[C@H](CN(C)C)c2ccccc2)C3(C)C)cc1 [YKL-5-124]
maximum observed lethal fraction
Conditions	0.0316 µM	0.1 µM	0.316 µM	1 µM	3.16 µM	10 µM	31.6 µM
U2OS	0.0634	0.0827	0.0923	0.161	0.221	0.274	0.461
U2OS BAX/BAK1 DKO	0.0674	0.0739	0.0839	0.0802	0.0829	0.0948	0.1
U2OS BCL2L12-KO	0.0697	0.0761	0.0812	0.0841	0.0923	0.115	0.49
U2OS PTBP1-KO	0.0724	0.0809	0.0854	0.0868	0.0884	0.1	0.252
